This is an account of results in US5877204A, “Compounds containing a michael-acceptor, especially maleimide or maleic acid derivatives, directly or indirectly linked to a chromophore and their use in long lasting sunscreen compositions” (Vanguard Medica Limited, priority 1994, dated 1999).

Several values for one entry are separate records, joined by “and”; a condition that tells them apart may be missing. Identical values can stand only once. Like-named read-outs stand apart in the source and are kept apart here.

The nature of data set [1]: Ames tests (mutagenicity and toxicity), with or without rat liver metabolic activation system S9. The class given is cell-based. An excerpt: Among the important criteria for topically applied sunscreens, safety in use has the highest priority. It was thus necessary to investigate the mutagenicity of the maleimide and maleamic acid derivatives of sunscreens. Six compounds of the present invention were chosen as representative of the main classes of sunscreen and submitted for Ames tests.
Background: In the Ames test, an excess of revertant colonies over the control signals mutagenicity.

The conditions of data set [2]: background, known sunscreen absorbers; cited from earlier work.
A short description of data set [3]: UV absorption of the chromophore (λmax, ε). The class given is physicochemical. Further details: key to λmax: λmax in nm. To be noted: for ε: at λmax, in M-1·cm-1 (unit assumed). An excerpt:
This can sometimes be a problem since if the change in λmax is too great, the chromophore may no longer absorb light in the UVA or UVB wavelength range.
An example of this change is 4-aminobenzophenone which has a λmax of 318 nm which is in the UVB range. When the amino group is replaced by a maleamic acid group, the λmax of the chromophore shifts to 306 nm which is still within the UVB range but when the amino group is replaced by a maleimide residue, the λmax falls to 258 nm. This is outside the range of UVB although there is a restoration of UVB activity when the maleimide is reacted with cysteine as it would be when applied to the skin (λmax=293 nm). The changes are easily rationalised on the basis of conjugative effects but the effects of attaching Michael acceptors to the various chromophores which may be used cannot always easily be predicted. This problem can be overcome to a large extent simply by separating the chromophore from the Michael acceptor using a spacer. Particularly useful compounds therefore include those in which the group R is C1 -C8 alkyl-YZ, C2 -C8 alkenyl-YZ or C2 -C8 alkynyl-YZR and especially those in which Y is O. Compounds in which a hexyloxy linker is used (that is, R is (CH2)6 OZ) are especially preferred.

Data set [4] deals with DNA. The note with it: cited from earlier work.
A short description of data set [5]: Reaction of maleimide derivatives with L-cysteine ethyl ester (tlc). The note with it: room temperature. The method, then:
In order to underpin the principle of reaction of maleimido derivatives with the cysteine thiol groups, two model reactions were studied. Thus the reactions between L-cysteine ethyl ester and N-phenylmaleimide and N-(4-benzoylphenyl)maleimide were carried out. In each case, the reaction produced the diastereoisomeric product mixtures in reasonable yields at room temperature. All starting maleimides had reacted within 30 minutes (tlc). The two products were isolated and characterised.
The mildness and rapidity of these reactions indicate that the maleimido groups confer the ability for reaction with the nucleophilic groups of keratin.

The test system of data set [6] is hair keratin. The data set can be described thus: Substantivity test with human hair (uv assay of supernatant). The class given is binding. The method, then:
Initial tests were conducted with human hair specially cleaned and prepared to provide as near to a standard substrate as possible. The method adopted utilised the reduction in ultra-violet absorptivity in the supernatant solution in contact with hair when the compound under test was absorbed into the hair surface. Standard and control solutions were employed. […] Similar tests with hair have been quoted in the patent literature as evidence, and as a standard test, for substantivity of sunscreens and other cosmetics.

Data set [7] deals with horn hoof keratin. Put plainly: Substantivity test with powdered horn-hoof keratin (uv absorptivity). The class given is binding, various animals. An excerpt:
Keratin prepared from the horns and hooves of various animals is commercially available, and this was used in a similar way to the hair (above). The keratin was finely powdered and stirred with a solution of the maleimido compound and its substantivity estimated by uv absorptivity measurements.

Where [8] appears, read: effect of attaching Michael acceptor to 4-aminobenzophenone chromophore.
[9] abbreviates: characterisation in the Examples, solvent not stated.
[10] abbreviates: uv assay, 1.0000 g hair, single tests (0.4520 g and 0.4670 g maleimide added).
The mark [11] stands for this setting: 1.0000 g horn hoof keratin, single tests (0.4360 g and 0.4741 g maleimide added).
Setting [12] is: horn hoof keratin, average of the two tests.

For `CCN1C(=O)C=CC1=O`, the Toxicity in data set [1] (+S9) was determined as 50 μG plate^-1; in data set [1] (-S9), 25 μG plate^-1.
As to `CCCCC(CC)COC(=O)C=Cc1ccc(OC)cc1` (centres unmarked) [2-ethylhexyl-4'-methoxycinnamate], in data set [2], the λmax is 308 nm.
In the case of `COc1ccc(C(=O)CC(=O)c2ccc(C(C)(C)C)cc2)cc1` [4-^t butyl-4'-methoxydibenzoylmethane], in data set [2], the λmax is 355 nm.
In data set [3] (setting [8]), `Nc1ccc(C(=O)c2ccccc2)cc1` [4-aminobenzophenone, reference compound] displayed a λmax of 318 nm.
As for `COc1c2ccoc2cc2oc(=O)ccc12` [5-methoxypsoralen (5-MOP), 5-methoxypsoralen], in data set [4], the “photobinding to DNA” value is “photobinds to DNA”, the photocarcinogenicity entry is given as “photocarcinogen” and the photomutagenicity result was “photomutagen”.
Turning to `O=C(O)/C=C\C(=O)Nc1ccc(C(=O)O)cc1` [Example 1, N-(4-carboxyphenyl)maleamic Acid], the Toxicity in data set [1] (+S9) and in data set [1] (-S9) was 5000 μG plate^-1 throughout.
For the compound `O=C(O)c1ccc(N2C(=O)C=CC2=O)cc1` [Example 2, N-(4-carboxyphenyl)maleimide], the Toxicity in data set [1] (+S9) and in data set [1] (-S9) was 500 μG plate^-1 throughout.
`O=C(O)/C=C\C(=O)Nc1ccc(C(=O)c2ccccc2)cc1` [Example 3, N-(4-benzoylphenyl)maleamic Acid] gave a ε in data set [3] (solvent not stated) of 20560. Besides, the λmax in data set [3] (setting [9]) and in data set [3] (setting [8]) was 306 nm throughout. For the same compound, the Toxicity in data set [1] (+S9) and in data set [1] (-S9) was 2500 μG plate^-1 each time. Also, in data set [1] (Ames test, with or without S9), the Mutagenicity result is reported as “Negative”.
For the compound `O=C(c1ccccc1)c1ccc(N2C(=O)C=CC2=O)cc1` [Example 4, N-(4-benzoylphenyl)maleimide], the λmax in data set [3] (setting [8]) is listed as 258 nm. In data set [5], the “time within which all starting maleimide had reacted” value was at most 30 min. Moreover, the results for the Toxicity in data set [1] (+S9) and in data set [1] (-S9) were 100 μG plate^-1 and 40 μG plate^-1, respectively.
Consider `O=C(O)/C=C\C(=O)Nc1ccc(/C=C/C(=O)O)cc1` [Example 5, N-[4-(2-carboxy-(E)-ethenyl)phenyl]maleamic Acid], for which the Toxicity in data set [1] (+S9) and in data set [1] (-S9) was 5000 μG plate^-1 throughout.
For `O=C(O)/C=C/c1ccc(N2C(=O)C=CC2=O)cc1` [Example 6, N-[4-(2-carboxy-(E)-ethenyl)phenyl]maleimide], the Toxicity in data set [1] (+S9) and in data set [1] (-S9) was 200 μG plate^-1 in each case.
For `COC(=O)c1ccc(NC(=O)/C=C\C(=O)O)cc1` [Example 7, N-(4-methoxycarbonylphenyl)maleamic Acid], the ε in data set [3] (solvent not stated) is 16013. The compound further had a λmax in data set [3] (setting [9]) of 294 nm.
With `COC(=O)c1ccc(N2C(=O)C=CC2=O)cc1` [Example 8, N-(4-methoxycarbonylphenyl)maleimide], the ε in data set [3] (solvent not stated) was found to be 15844. In data set [3] (setting [9]), this compound came in with a λmax of 245 nm.
Regarding `CCCCOC(=O)c1ccc(NC(=O)/C=C\C(=O)O)cc1` [Example 9, N-(4-n-butyloxycarbonylphenyl)maleamic Acid], the ε in data set [3] (solvent not stated) is 15806. For the same compound, in data set [3] (setting [9]), the λmax stood at 294 nm.
In data set [3] (solvent not stated), `CCCCOC(=O)c1ccc(N2C(=O)C=CC2=O)cc1` [Example 10, N-(4-n-butyloxycarbonylphenyl)maleimide] gave a ε of 15563. The compound further showed a λmax in data set [3] (characterisation in Example 10, unit not given) of 245.
In data set [3] (CH2 Cl2), `O=C(O)/C=C\C(=O)NCCCCCCOc1ccc(C(=O)c2ccccc2)cc1` [Example 11, N-[6-(4-benzoylphenoxy)-hexyl]-maleamic Acid] yielded a λmax of 285 nm and a ε of 16047. For the same compound, the Toxicity in data set [1] (+S9) came to 2500 μG plate^-1. The Toxicity in data set [1] (-S9) is given as 2500 μG plate^-1.
As to `O=C(c1ccccc1)c1ccc(OCCCCCCN2C(=O)C=CC2=O)cc1` [Example 12, N-[6-(4-benzoylphenoxy)-hexyl]-maleimide], in data set [3] (CH2 Cl2), the λmax was determined as 286 nm. The same compound displayed a ε in data set [3] (CH2 Cl2) of 16590. In addition, the Toxicity worked out at 800 μG plate^-1 in data set [1] (+S9) and 200 μG plate^-1 in data set [1] (-S9).
In the case of `O=C1C=CC(=O)N1c1ccccc1` [N-phenylmaleimide], in data set [5], the “time within which all starting maleimide had reacted” value was at most 30 min. The Average substantivity in data set [6] (hair, average of the two tests) amounted to 24.5%; in data set [7] (setting [12]), 21.7%. For the same compound, the “Average wt maleimide absorbed” value is listed as 0.1129 g in data set [6] (hair, average of the two tests) and 0.0985 g in data set [7] (setting [12]). Also, in data set [6] (initial tests, in words), the “reduction in ultra-violet absorptivity of supernatant in contact with hair” value is reported as “considerable reduction in absorptivity”. The Substantivity was 18.5% and 30.4% in data set [6] (setting [10]); 22.2% and 21.1% in data set [7] (setting [11]). For the same compound, the Wt maleimide absorbed was 0.0837 g and 0.1421 g in data set [6] (setting [10]); 0.0968 g and 0.1001 g in data set [7] (setting [11]).
Compound `NC(CSC1CC(=O)N(c2ccc(C(=O)c3ccccc3)cc2)C1=O)C(=O)O` (centres unmarked) [maleimide reacted with cysteine] yielded a λmax in data set [3] (setting [8]) of 293 nm.
